From patent US10189841B2, “Purinones as ubiquitin-specific protease 1 inhibitors” (Forma Therapeutics, Inc., priority 2015, dated 2019)

Molecular target: USP1 (construct USP1 (I-785, GG670, 671AA)/UAF1 (I-677)-Flag) (Homo sapiens (Human), UniProt O94782, G670A/G671A)
Experiment: Ubiquitin-Rhodamine 110 assay for USP1 activity
Assay type: biochemical
Details: USP1/UAF1 25 pM, Ub-Rh110 25 nM, 30 min preincubation
Protocol: Example 53: Ubitquin-Rhodamine 110 Assay for USP1 Activity
The HTS assay was performed in a final volume of 20 μL in assay buffer containing 20 mM Tris-HCl (pH 8.0, (1M Tris-HCl, pH 8.0 solution; Corning 46-031-CM)), 2 mM CaCl2 (1M Calcium Chloride solution; Sigma #21114) 1 mM GSH (L-Glutathione reduced; Sigma #G4251), 0.01% Prionex ([…] filtered, Sigma #G-0411), and 0.01% Triton X-100. Stock compound solutions were stored at −20° C. as 10 mM in DMSO. Up to 1 month prior to the assay, 2 mM test compounds were pre-dispensed into assay plates (Black, low volume; Corning #3820) and frozen at −20° C. Prestamped assay plates were allowed to come to room temperature on the day of the assay. For the screen, 100 nL of 2 mM was pre-dispensed for a final screening concentration of […] (DMSO(fc)=0.5%). The final concentration of the enzyme (USP1, construct USP1 (I-785, GG670, 671AA)/UAF1 (I-677)-Flag; Viva) in the assay was 100 pM. Final substrate (Ub-Rh110; Ubiquitin-Rhodamine 110, R&D Systems #U-555) concentration was 25 nM with [Ub-Rh110]<<Km. […] Plates were incubated stacked for 45 minutes at room temperature before fluorescence was read on the Envision (Excitation at 485 nm and Emission at 535 nm; Perkin Elmer) or on the PheraSTAR (Excitation at 485 nm and Emission at 535 nm; BMG Labtech)
Nanoliter quantities of either an 8-point or 10-point, 3-fold serial dilution in DMSO was pre-dispensed into assay plates (Perkin Elmer, ProxiPlate-384 F Plus, #6008269) for a final test concentration range of either 25 μM to 11 nM or 25 μM to 1.3 nM, respectively. The final concentration of the enzyme (USP1, construct USP1 (I-785, GG670, 671AA)/UAF1 (I-677)-Flag; Viva) in the assay was 25 pM. Final substrate (Ub-Rh110; Ubiquitin-Rhodamine 110, R&D Systems #U-555) concentration was 25 nM with [Ub-Rh110]<<Km. […] Plates were incubated stacked for 20 minutes at room temperature before 5 μL of stop solution (final concentration of 10 mM citric acid in assay buffer (Sigma, #251275-500G)). Fluorescence was read on the Envision (Excitation at 485 nm and Emission at 535 nm; Perkin Elmer) or on the PheraSTAR (Excitation at 485 nm and Emission at 535 nm; BMG Labtech).
For both assay formats data were reported as percent inhibition compared with control wells based on the following equation: % inh=[1−((FLU−AveLow)/(AveHigh−AveLow))]×100 where FLU=measured Fluorescence, AveLow=average Fluorescence of no enzyme control (n=16), and AveHigh=average Fluorescence of DMSO control (n=16). IC50 values were determined by curve fitting of the standard 4 parameter logistic fitting algorithm included in the Activity Base software package: IDBS XE Designer Model205. Data is fitted using the Levenburg Marquardt algorithm.

Sequence of USP1 (construct USP1 (I-785, GG670, 671AA)/UAF1 (I-677)-Flag) (O94782 whole entry G670A/G671A): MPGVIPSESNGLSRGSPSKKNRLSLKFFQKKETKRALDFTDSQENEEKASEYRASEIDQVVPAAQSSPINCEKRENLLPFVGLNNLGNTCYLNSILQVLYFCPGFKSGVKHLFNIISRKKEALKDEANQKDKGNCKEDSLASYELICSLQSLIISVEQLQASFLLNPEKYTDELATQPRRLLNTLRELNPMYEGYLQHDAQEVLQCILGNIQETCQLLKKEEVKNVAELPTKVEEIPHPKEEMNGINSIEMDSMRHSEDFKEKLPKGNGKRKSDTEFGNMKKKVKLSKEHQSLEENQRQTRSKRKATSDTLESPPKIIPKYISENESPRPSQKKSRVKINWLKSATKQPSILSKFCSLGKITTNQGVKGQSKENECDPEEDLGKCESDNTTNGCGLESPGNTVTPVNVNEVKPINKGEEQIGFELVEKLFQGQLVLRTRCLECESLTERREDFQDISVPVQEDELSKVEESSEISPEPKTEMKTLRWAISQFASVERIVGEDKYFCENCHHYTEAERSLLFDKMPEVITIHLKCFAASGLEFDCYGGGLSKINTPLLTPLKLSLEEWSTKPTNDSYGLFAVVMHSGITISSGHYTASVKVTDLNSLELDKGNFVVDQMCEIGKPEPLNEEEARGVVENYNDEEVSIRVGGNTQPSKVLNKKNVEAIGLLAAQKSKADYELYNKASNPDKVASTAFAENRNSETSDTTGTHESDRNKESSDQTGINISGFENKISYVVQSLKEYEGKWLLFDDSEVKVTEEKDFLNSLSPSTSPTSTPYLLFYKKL
Sequence of USP1 (construct USP1 (I-785, GG670, 671AA)/UAF1 (I-677)-Flag) (Q8TAF3 whole entry partner): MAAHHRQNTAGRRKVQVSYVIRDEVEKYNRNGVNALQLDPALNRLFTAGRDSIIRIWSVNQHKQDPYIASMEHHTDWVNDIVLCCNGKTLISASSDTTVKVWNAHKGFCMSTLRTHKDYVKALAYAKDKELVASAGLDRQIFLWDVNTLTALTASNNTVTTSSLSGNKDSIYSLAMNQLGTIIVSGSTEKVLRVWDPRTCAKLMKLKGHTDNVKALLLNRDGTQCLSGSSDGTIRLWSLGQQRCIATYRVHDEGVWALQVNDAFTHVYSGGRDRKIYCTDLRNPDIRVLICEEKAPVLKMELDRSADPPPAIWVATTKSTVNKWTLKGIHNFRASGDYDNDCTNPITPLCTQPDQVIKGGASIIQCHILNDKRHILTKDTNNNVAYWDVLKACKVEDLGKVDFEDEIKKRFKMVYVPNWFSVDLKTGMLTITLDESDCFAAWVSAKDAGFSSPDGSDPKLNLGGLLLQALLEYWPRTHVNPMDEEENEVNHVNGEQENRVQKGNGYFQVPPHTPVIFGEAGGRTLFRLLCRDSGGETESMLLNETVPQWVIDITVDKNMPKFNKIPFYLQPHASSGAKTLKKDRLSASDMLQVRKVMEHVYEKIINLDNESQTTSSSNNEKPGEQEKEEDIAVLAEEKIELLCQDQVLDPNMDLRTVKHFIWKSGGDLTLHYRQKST

Structure (SMILES) | IC50 [nM]
CC(C)c1ccccc1-c1ncc2[nH]c(=O)n([C@H](C)c3ccc(-n4cccn4)cc3)c2n1 (single isomer, unassigned) [Compound I-158] | < 50
CC(C)c1ccccc1-c1ncc2[nH]c(=O)n(Cc3ccc(-n4ccc([C@H]5CCCNC5)n4)cc3)c2n1 (single isomer, unassigned) [Compound I-225] | 50 to 200
Cc1cc(C)n(-c2ccc(Cn3c(=O)[nH]c4cnc(-c5ccccc5C(C)C)nc43)cc2)n1 [Compound I-1, 9-(4-(3,5-Dimethyl-1H-pyrazol-1-yl)benzyl)-2-(2-isopropylphenyl)-7,9-dihydro-8H-purin-8-one] | < 50
CC(C)c1ncccc1-c1ncc2[nH]c(=O)n(Cc3ccc(-n4nccn4)cc3)c2n1 [Compound I-3, 9-(4-(2H-1,2,3-triazol-2-yl)benzyl)-2-(2-isopropylpyridin-3-yl)-7,9-dihydro-8H-purin-8-one] | 200 to 2000
O=c1[nH]c2cnc(-c3cccnc3OC(F)F)nc2n1Cc1ccc(-n2nccn2)cc1 [Compound I-4, 9-(4-(2H-1,2,3-triazol-2-yl)benzyl)-2-(2-(difluoromethoxy)pyridin-3-yl)-7,9-dihydro-8H-purin-8-one] | > 2000
CC(C)COc1ncccc1-c1ncc2[nH]c(=O)n(Cc3ccc(-n4nccn4)cc3)c2n1 [Compound I-5, 9-(4-(2H-1,2,3-triazol-2-yl)benzyl)-2-(2-isobutoxypyridin-3-yl)-7,9-dihydro-8H-purin-8-one] | > 2000
CC(C)c1ccccc1-c1ncc2c(n1)n(Cc1ccc(-n3cccn3)cc1)c(=O)n2C [Compound I-6, 9-(4-(1H-pyrazol-1-yl)benzyl)-2-(2-isopropylphenyl)-7-methyl-7,9-dihydro-8H-purin-8-one] | 50 to 200
CC(C)c1ncccc1-c1ncc2c(n1)n(Cc1ccc(-n3cccn3)cc1)c(=O)n2C [Compound I-7, 9-(4-(1H-pyrazol-1-yl)benzyl)-2-(2-isopropylpyridin-3-yl)-7-methyl-7,9-dihydro-8H-purin-8-one] | 200 to 2000
CC(C)c1c(F)cccc1-c1ncc2c(n1)n(Cc1ccc(-n3cccn3)cc1)c(=O)n2C [Compound I-8, 9-(4-(1H-pyrazol-1-yl)benzyl)-2-(3-fluoro-2-isopropylphenyl)-7-methyl-7,9-dihydro-8H-purin-8-one] | < 50
CC(C)c1ccc(F)cc1-c1ncc2c(n1)n(Cc1ccc(-n3cccn3)cc1)c(=O)n2C [Compound I-9, 9-(4-(1H-pyrazol-1-yl)benzyl)-2-(5-fluoro-2-isopropylphenyl)-7-methyl-7,9-dihydro-8H-purin-8-one] | 200 to 2000
CC(C)c1cc(F)ccc1-c1ncc2c(n1)n(Cc1ccc(-n3cccn3)cc1)c(=O)n2C [Compound I-10, 9-(4-(1H-pyrazol-1-yl)benzyl)-2-(4-fluoro-2-isopropylphenyl)-7-methyl-7,9-dihydro-8H-purin-8-one] | 200 to 2000
CC(C)c1cccc(F)c1-c1ncc2c(n1)n(Cc1ccc(-n3cccn3)cc1)c(=O)n2C [Compound I-11, 9-(4-(1H-pyrazol-1-yl)benzyl)-2-(2-fluoro-6-isopropylphenyl)-7-methyl-7,9-dihydro-8H-purin-8-one] | < 50
CC(C)c1ncccc1-c1ncc2[nH]c(=O)n([C@@H](C)c3ccc(-n4cccn4)cc3)c2n1 [Compound I-13, (S)-9-(1-(4-(1H-pyrazol-1-yl)phenyl)ethyl)-2-(2-isopropylpyridin-3-yl)-7,9-dihydro-8H-purin-8-one] | 200 to 2000
CC(C)c1ncccc1-c1ncc2[nH]c(=O)n([C@H](C)c3ccc(-n4cccn4)cc3)c2n1 [Compound I-14, (R)-9-(1-(4-(1H-pyrazol-1-yl)phenyl)ethyl)-2-(2-isopropylpyridin-3-yl)-7,9-dihydro-8H-purin-8-one] | 50 to 200
CC(C)Oc1cc(F)ccc1-c1ncc2[nH]c(=O)n(Cc3ccc(-n4nccn4)cc3)c2n1 [Compound I-15, 9-(4-(2H-1,2,3-triazol-2-yl)benzyl)-2-(4-fluoro-2-isopropoxyphenyl)-7,9-dihydro-8H-purin-8-one] | > 2000
COc1c(F)cccc1-c1ncc2[nH]c(=O)n(Cc3ccc(-n4nccn4)cc3)c2n1 [Compound I-16, 9-(4-(2H-1,2,3-triazol-2-yl)benzyl)-2-(3-fluoro-2-methoxyphenyl)-7,9-dihydro-8H-purin-8-one] | > 2000
CC(C)c1ccncc1-c1ncc2c(n1)n(Cc1ccc(-n3cccn3)cc1)c(=O)n2C [Compound I-17, 9-(4-(1H-pyrazol-1-yl)benzyl)-2-(4-isopropylpyridin-3-yl)-7-methyl-7,9-dihydro-8H-purin-8-one] | > 2000
O=c1[nH]c2cnc(-c3cccnc3OCC(F)(F)F)nc2n1Cc1ccc(-n2cccn2)cc1 [Compound I-18, 9-(4-(1H-pyrazol-1-yl)benzyl)-2-(2-(2,2,2-trifluoroethoxy)pyridin-3-yl)-7,9-dihydro-8H-purin-8-one] | 200 to 2000
CCOc1ncccc1-c1ncc2[nH]c(=O)n(Cc3ccc(-n4cccn4)cc3)c2n1 [Compound I-19, 9-(4-(1H-pyrazol-1-yl)benzyl)-2-(2-ethoxypyridin-3-yl)-7,9-dihydro-8H-purin-8-one] | 200 to 2000
COCCOc1ccccc1-c1ncc2[nH]c(=O)n(Cc3ccc(-n4cccn4)cc3)c2n1 [Compound I-20, 9-(4-(1H-pyrazol-1-yl)benzyl)-2-(2-(2-methoxyethoxy)phenyl)-7,9-dihydro-8H-purin-8-one] | 200 to 2000
CCCOc1ccccc1-c1ncc2[nH]c(=O)n(Cc3ccc(-n4cccn4)cc3)c2n1 [Compound I-21, 9-(4-(1H-pyrazol-1-yl)benzyl)-2-(2-propoxyphenyl)-7,9-dihydro-8H-purin-8-one] | 50 to 200
O=c1[nH]c2cnc(-c3ccccc3OCC(F)(F)F)nc2n1Cc1ccc(-n2cccn2)cc1 [Compound I-22, 9-(4-(1H-pyrazol-1-yl)benzyl)-2-(2-(2,2,2-trifluoroethoxy)phenyl)-7,9-dihydro-8H-purin-8-one] | 200 to 2000
O=c1[nH]c2cnc(-c3ccccc3OCC3CC3)nc2n1Cc1ccc(-n2cccn2)cc1 [Compound I-23, 9-(4-(1H-pyrazol-1-yl)benzyl)-2-(2-(cyclopropylmethoxy)phenyl)-7,9-dihydro-8H-purin-8-one] | 50 to 200
O=c1[nH]c2cnc(-c3cccnc3OCC(F)(F)F)nc2n1[C@@H]1CC[C@H]1c1ccc(-n2cccn2)cc1 [Compound I-24, 9-((1R,2S)-2-(4-(1H-pyrazol-1-yl)phenyl)cyclobutyl)-2-(2-(2,2,2-trifluoroethoxy)pyridin-3-yl)-7,9-dihydro-8H-purin-8-one] | 50 to 200
O=c1[nH]c2cnc(-c3cccc4c3OC(F)(F)O4)nc2n1Cc1ccc(-n2cccn2)cc1 [Compound I-25, 9-(4-(1H-pyrazol-1-yl)benzyl)-2-(2,2-difluorobenzo[d][1,3]dioxol-4-yl)-7,9-dihydro-8H-purin-8-one] | 50 to 200
Cn1cc(C(F)(F)F)nc1-c1ccc(Cn2c(=O)[nH]c3cnc(-c4cccnc4OCC(F)(F)F)nc32)cc1 [Compound I-26, 9-(4-(1-methyl-4-(trifluoromethyl)-1H-imidazol-2-yl)benzyl)-2-(2-(2,2,2-trifluoroethoxy)pyridin-3-yl)-7,9-dihydro-8H-purin-8-one] | < 50
CCc1ccccc1-c1ncc2[nH]c(=O)n(Cc3ccc(-n4cccn4)cc3)c2n1 [Compound I-27, 9-(4-(1H-pyrazol-1-yl)benzyl)-2-(2-ethylphenyl)-7,9-dihydro-8H-purin-8-one] | 50 to 200
